Measured values reported in patent EP0608419A1, “TRANSOCULAR PREPARATION” (FUJISAWA PHARMACEUTICAL CO., LTD., priority 1991, dated 1993).
Read-outs that look alike come from different tables or passages of the source.

Legend:
[1] = test system: intraocular vascularization; experiment: Suppression of induced intraocular vascularization (cupric chloride pellet and aminoadipic acid) by eye drops, histological observation; format: in vivo, rabbits (Dutch); details: 2 mg/ml in isotonic phosphate buffer solution (pH 8), eye drops twice a day for 12 days; both eyes of five rabbits
Protocol: Both eyes of five rabbits (Dutch) were used for this experiment. Into the vitreum of the rabbits, 0.2 ml of sterilized air was injected. […] At the same time as transplantation, 1 mg of aminoadipic acid dissolved in 0.2 ml of physiological saline solution was injected into the vitreum, by which vascularization in the eyes (i.e. in the vitreum) was induced. Twenty-four hours later, isotonic phosphate buffer solution (pH 8, 2 mg/ml) which contained the same test compound used in Example 1 was administered drop by drop to each rabbit. The same administration was repeated twice a day for consecutive 12 days. After the final administration on the 12th day, the eyeballs were taken out therefrom and observed histologically to find whether the vascularization was suppressed or not.

[2] = Concentration of test compound in eye tissue and blood after transocular administration of ophthalmic solution (EIA); format: in vivo, JW (clean) strain female rabbits; details: topical or ocular, read-out: Mean concentration in tissue ± S.E.
Protocol: The resultant preparation was filled in an instillator.
(§1) c The experiment was carried out using JW (clean) strain female rabbits (body weight: 2.3 to 2.6 kg), each test group containing three rabbits. In this experiment, the rabbits were allowed to feed themselves and drink water freely both before and after each administration.
In case of transocular administration of ophthalmic solution, the rabbits were fixed on the cangue fixer and applied to each eye with one drop (about 0.05 ml) of the above ophthalmic solution using an instillator. The administration was repeated five times at 5-minute intervals. After the final administration, the rabbits were brought back to their cage. In these administrations, total dosage was 1 mg/rabbit. At 30 minutes after the final administration, blood was collected from the ear vein of the rabbits. Immediately, the rabbits were anesthetized by injection of "Nembutal" (Trademark) into the ear vein to bleed to death by cutting off their head and then the eyeballs were taken out therefrom.
(§2) The eyeballs taken out were washed with physiological saline solution under ice-cooling, and subsequently divided into various parts (i.e. cornea, aqueous humor in anterior chamber of eye, iris, lens, vitreum, retinochoroid and sclera). After measuring the weight of each part, phosphate buffer solution (pH 7.4) was added thereto and then the parts were homogenized using a glass-made "Potter-type homogenizer" (Trademark).
(§3) The determination of a concentration of the test compound in each sample was carried out by the two-step Enzyme-linked immunosorbent assay (EIA) using purified polyclonal antibody against the test compound.

[3] = Concentration of test compound in eye tissue and blood after continuous subcutaneous administration by implanted mini-pump (EIA); format: in vivo, JW (clean) strain female rabbits; details: sc, 2.5 mg/animal/day, read-out: Mean concentration in tissue ± S.E.
Protocol: as §1
On the other hand, in case of continuous subcutaneous administration, after the rabbits were anesthetized by injection of "Nembutal" (Trademark, 0.5 to 0.6 ml/kg i.v.), they were clipped their back side hair and then were incised their clipped parts about 3 cm long with a surgical knife. […] Subsequently, the incised parts of the rabbits were sutured with silk thread, and then the rabbits were brought back to their cage. In this case, total dosage was 2.5 mg/rabbit/day. The day when the mini-pump was implanted was defined as "Day 0". On Day 5, the rabbits were anesthetized by injection of "Nembutal" (Trademark) into the ear vein to bleed to death, and then the eyeballs were taken out therefrom. In this experiment, blood was collected for measuring a concentration of the test compound in blood on each Day 1, 4 and 5.
as §2, §3

**Q.** With `CNC(=O)OC1CCC2(CO2)C(C2(C)OC2CC=C(C)C)C1OC` (stereo not drawn) [test compound, 6-Methylcarbamoyloxy-5-methoxy-4-[2-methyl-3-(3-methyl-2-butenyl)oxiranyl]-1-oxaspiro[2.5]octane] as the molecule, how does the “eyeballs in which intraocular vascularization was suppressed thoroughly” value [1] read?
**A.** Its value is 42.9%.

**Q.** And the “eyeballs in which the vascularization was suppressed partially or thoroughly” value [1]?
**A.** Its value is 85.7%.

**Q.** And the concentration at 0.5 h ([2]; Aqueous humor in anterior chamber of eye, 30 min. after transocular administration of ophthalmic solution (total 1 mg/rabbit), n = 6)?
**A.** The concentration at 0.5 h was 141 ± 59.7 ng/g.

**Q.** And the concentration at 0.5 h ([2]; Cornea, 30 min. after transocular administration of ophthalmic solution (2 mg/ml, total 1 mg/rabbit), n = 6)?
**A.** The concentration at 0.5 h was 1.56 ± 0.73 ng/g.

**Q.** What about the concentration at 0.5 h ([2]; Lens, 30 min. after transocular administration of ophthalmic solution (total 1 mg/rabbit), n = 6) of the same molecule?
**A.** The concentration at 0.5 h was 12.4 ± 2.11 ng/g.

**Q.** What about the concentration at 0.5 h ([2]; Retinochoroid, 30 min. after transocular administration of ophthalmic solution (total 1 mg/rabbit), n = 6) of the same molecule?
**A.** Its concentration at 0.5 h is 40.2 ± 9.4 ng/g.

**Q.** What about the concentration at 0.5 h ([2]; Sclera, 30 min. after transocular administration of ophthalmic solution (total 1 mg/rabbit), n = 6) of the same molecule?
**A.** The concentration at 0.5 h was 0.78 ± 0.78 ng/g.

**Q.** What about the concentration at 0.5 h ([2]; Vitreum, 30 min. after transocular administration of ophthalmic solution (total 1 mg/rabbit), n = 6) of the same molecule?
**A.** Its concentration at 0.5 h is 9.99 ± 2.37 ng/g.

**Q.** And the concentration at 0.5 h ([2]; Whole blood (n = 3), 30 min. after transocular administration of ophthalmic solution (total 1 mg/rabbit))?
**A.** Its concentration at 0.5 h is 19.6 ± 4.22 ng/g.

**Q.** And the concentration at 120 h ([3]; Aqueous humor in anterior chamber of eye, Day 5 of continuous subcutaneous administration (2.5 mg/rabbit/day), n = 6)?
**A.** The concentration at 120 h was 0.79 ± 0.62 ng/g.

**Q.** What about the concentration at 120 h ([3]; Cornea, Day 5 of continuous subcutaneous administration (2.5 mg/rabbit/day) by mini-pump, n = 6) of the same molecule?
**A.** Its concentration at 120 h is 2.87 ± 0.52 ng/g.

**Q.** What about the concentration at 120 h ([3]; Lens, Day 5 of continuous subcutaneous administration (2.5 mg/rabbit/day), n = 6) of the same molecule?
**A.** Its concentration at 120 h is 0.2 ± 0.08 ng/g.

**Q.** And the concentration at 120 h ([3]; Retinochoroid, Day 5 of continuous subcutaneous administration (2.5 mg/rabbit/day), n = 6)?
**A.** Its concentration at 120 h is 0.6 ± 0.26 ng/g.

**Q.** And the concentration at 120 h ([3]; Sclera, Day 5 of continuous subcutaneous administration (2.5 mg/rabbit/day), n = 6)?
**A.** Its concentration at 120 h is 1.06 ± 0.27 ng/g.

**Q.** What about the concentration at 120 h ([3]; Vitreum, Day 5 of continuous subcutaneous administration (2.5 mg/rabbit/day), n = 6) of the same molecule?
**A.** The concentration at 120 h was 1.19 ± 0.23 ng/g.

**Q.** What about the concentration at 24 h ([3]; Whole blood, Day 1 (n=3), continuous subcutaneous administration (2.5 mg/rabbit/day)) of the same molecule?
**A.** Its concentration at 24 h is 30.6 ± 6.13 ng/g.

**Q.** And the concentration at 96 h ([3]; Whole blood, Day 4 (n=3), continuous subcutaneous administration (2.5 mg/rabbit/day))?
**A.** The concentration at 96 h was 13.7 ± 9.74 ng/g.

**Q.** And the concentration at 120 h ([3]; Whole blood, Day 5 (n=3), continuous subcutaneous administration (2.5 mg/rabbit/day))?
**A.** The concentration at 120 h was 22.5 ± 4.12 ng/g.
